Reference: patent US5430148A, “Antiproliferative quinazolines” (Agouron Pharmaceuticals, Inc., priority 1992, dated 1995)
Like-named read-outs stand apart in the source and are kept apart here.

Columns and labels:
GC3/M TK- cells = test: Inhibition of growth of tumor cells, thymidine kinase-deficient human colon adenocarcinoma GC3/M TK- (MTT); type: cell-based; conditions: for IC50: read-out: Cell Culture IC50, GC3-M (TK-)
Description: (§1) In Vitro Testing to Determine Inhibition of Growth of Tumor Cells
(§2) Growth was measured over 3 days (L1210) or 5 days (CCRF-CEM, GC3 /M TK^-) of continuous exposure to varying concentrations of each test compound, added 4 h. after initial cell plating, by the MTT-tetrazolium reduction assay of T. J. Mosmann [J. Immunol. Meth. […] Water insoluble derivatives were dissolved in DMSO and diluted to a final concentration of 0.5% solvent in cell cultures.

[1] = target: human TS (thymidylate synthase) (Homo sapiens, UniProt P04818); test: Inhibition constants against 5,10-methylenetetrahydrofolate for thymidylate synthase, human enzyme (tritium release); type: biochemical; conditions: cofactor as variable substrate, pH 7.6, 24° C.
Chain of human TS (thymidylate synthase) (P04818 2-313 limits assumed): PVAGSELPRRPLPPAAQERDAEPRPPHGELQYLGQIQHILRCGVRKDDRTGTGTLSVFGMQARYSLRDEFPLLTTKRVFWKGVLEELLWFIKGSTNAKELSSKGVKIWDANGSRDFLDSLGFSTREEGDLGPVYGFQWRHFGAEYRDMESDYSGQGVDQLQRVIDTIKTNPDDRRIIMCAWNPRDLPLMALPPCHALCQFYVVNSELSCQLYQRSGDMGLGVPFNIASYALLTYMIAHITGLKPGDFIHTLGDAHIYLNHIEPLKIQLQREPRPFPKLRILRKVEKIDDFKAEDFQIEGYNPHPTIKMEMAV
Description: (§3) Determination of Inhibition Constants Against 5,10-Methylenetetrahydrofolate for the Enzyme Thymidylate Synthase
(§4) Inhibition constants, Ki, slope and Ki, intercept [W. W. Cleland, Biochim. Biophys. […] The cofactor was present as the variable substrate under conditions of saturating radiolabelled 2'-deoxyuridine 5-monophosphate (dUMP). […] Assays of human TS also contained 1-5 μg/mL bovine serum albumin to stabilize the protein. Reactions were initiated by the addition of enzyme and were carried out for 5 minutes at 24° C., and then quenched by the addition of charcoal (15 mg in 0.1 mL H2 O). The quenched samples were centrifuged at 10,000 rpm for 12-15 min at […] to remove unreacted dUMP which had bound to the charcoal, and 0.1 mL of the supernatant was counted by liquid scintillation in the presence of 5 mL ecolume to determine the release of tritium label from the 5-position of the dUMP. […] Experimental results were analyzed by EZ-FIT, a nonlinear regression analysis program (Perrella Scientific, Springfield, Pa.) which was used to fit all data points simultaneously to a mixed noncompetitive inhibition scheme.

[2] = target: E. coli TS (thymidylate synthase) (Escherichia coli, UniProt P0A884); test: Inhibition constants against 5,10-methylenetetrahydrofolate for thymidylate synthase, E. coli enzyme (tritium release); type: biochemical
Chain of E. coli TS (thymidylate synthase) (P0A884 whole entry): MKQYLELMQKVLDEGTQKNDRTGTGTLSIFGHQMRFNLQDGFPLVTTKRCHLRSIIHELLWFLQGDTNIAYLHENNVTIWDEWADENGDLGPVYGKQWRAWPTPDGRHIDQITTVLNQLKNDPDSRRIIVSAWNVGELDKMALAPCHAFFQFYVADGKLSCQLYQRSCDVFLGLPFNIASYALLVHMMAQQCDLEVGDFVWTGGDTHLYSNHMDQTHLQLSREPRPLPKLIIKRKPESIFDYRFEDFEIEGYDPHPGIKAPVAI
Description: as §3, §4

CCRF-CEM cells = test: Inhibition of growth of tumor cells, CCRF-CEM human lymphoblastic leukemia (MTT); type: cell-based; conditions: for IC50: read-out: Cell Culture IC50, CCRF-CEM; for inhibition at 50 µM: read-out: growth inhibition, CCRF-CEM
Description: as §1, §2

[3] = tested on: L1210 murine leukemia cells; test: Inhibition of growth of tumor cells, L1210 murine leukemia (MTT); type: cell-based; conditions: for IC50: read-out: Cell Culture IC50, L1210; for inhibition at 50 µM: read-out: growth inhibition, L1210
Description: as §1, §2

[4] = Homo sapiens, GC3/MTK-, 120 h, 5 days continuous exposure, MTT
[5] = read-out: Ki Data, human thymidylate synthase
[6] = Ki Data, human thymidylate synthase
[7] = Homo sapiens, CCRF-CEM, 120 h, 5 days continuous exposure, MTT
[8] = Mus musculus, L1210, 72 h, 3 days continuous exposure, MTT
[9] = Mus musculus, L1210, 72 h, @ > 50 μM, 3 days
[10] = 5 days continuous exposure, MTT
[11] = 3 days continuous exposure, MTT

Row | SMILES | IC50 (GC3/M TK- cells; [4]) [nM] | Ki [1, 5] [nM] | Ki [2] [nM] | Ki [1, 6] [nM] | IC50 (CCRF-CEM cells; [7]) [nM] | IC50 [3, 8] [nM] | other results
1 | Cc1nc2ccc(C)c(Sc3ccnnc3)c2c(=O)[nH]1 [Compound 29A] | > 12500 | 120 ± 20 |  |  |  |  | 
2 | COc1cc(Sc2c(C)ccc3nc(C)[nH]c(=O)c23)ccn1 [Compound 16A, 3,4-Dihydro-2,6-dimethyl-4-oxo-5-[4-(6-methoxypyridylthio)]quinazoline] | > 5000 |  | 760 ± 120 | 48 ± 6 |  |  | 
3 | COc1ccc2nc(C)[nH]c(=O)c2c1Sc1ccncc1 [Compound 13A, 3,4-Dihydro-6-methoxy-2-methyl-4-oxo-5-(4-pyridylthio)-quinazoline] | 32000 |  |  |  | 26000 | 21000 | 
4 | Cc1nc2cccc(C(O)(c3ccccc3)c3ccccc3)c2c(=O)[nH]1 [Compound 6A, 3,4-Dihydro-5-(α-diphenyl-hydroxymethyl)-2-methyl-4-oxo-quinazoline] | > 4980 | > 10000 | > 10000 |  | 4000 | 2300 | 
5 | Cc1nc2cccc(Cn3cncc3-c3ccccc3)c2c(=O)[nH]1 [Compound 31A] | > 50000 | 51000 ± 2200 | 21000 ± 6000 |  | > 50000 | 48000 | 
6 | Cc1nc2ccc(C)c(Sc3ccnc(N(C)C)c3)c2c(=O)[nH]1 [Compound 26A, 3,4-Dihydro-2,6-dimethyl-4-oxo-5-[4-(6-dimethylaminopyridylthio)]-quinazoline] | 18000 |  |  | 79 | 10500 | 4050 | 
7 | Cc1nc2ccc(C)c(Sc3ccc(C(=O)O)cc3)c2c(=O)[nH]1 [Compound 28A, 4-[(3,4-Dihydro-2,6-dimethyl-4-oxo-5-quinazolinyl)thio]-benzoic acid] | > 50000 |  |  | 115 | > 50000 | > 50000 | growth inhibition, GC3-M (TK-) (GC3/M TK- cells; @ > 50 μM, 5 days): none; growth inhibition, CCRF-CEM (CCRF-CEM cells; @ > 50 μM, 5 days): none; inhibition at 50 µM [3, 9]: 27%
8 | Cc1nc2ccc(C)c(Sc3nnc(C)s3)c2c(=O)[nH]1 [Compound 11A] | > 3330 | 2000 ± 400 | 21000 ± 13000 |  | > 3330 | > 3330 | growth inhibition, GC3-M (TK-) (GC3/M TK- cells; @ > 3.33 μM, 5 days): none; inhibition at 3.33 µM (CCRF-CEM cells; Homo sapiens, CCRF-CEM, 120 h, @ > 3.33 μM, 5 days): 17%; growth inhibition, L1210 ([3]; @ > 3.33 μM, 3 days): none
9 | Cc1nc2ccc(C)c(Sc3ccc(S(=O)(=O)c4ccccc4)cc3)c2c(=O)[nH]1 [Compound 9A] | 4500 |  |  |  | 2100 | 1800 | 
10 | Cc1ccc2nc(N)[nH]c(=O)c2c1Sc1ccnnc1 [Compound 30A] | 1500 | 11 |  |  | 880 | 1600 | 
11 | Cc1cc(Sc2c(C)ccc3nc(C)[nH]c(=O)c23)ccn1 [Compound 12A, 3,4-Dihydro-2,6-dimethyl-4-oxo-5-[4-(2-picolinylthio)]-quinazoline] | 5000 |  | 550 ± 50 | 70 ± 1 | 4200 | 4200 | 
12 | Cc1nc2ccc(C)c(Sc3cccnc3)c2c(=O)[nH]1 [Compound 21A] |  |  |  | 190000 ± 25000 |  |  | growth inhibition, GC3-M (TK-) (GC3/M TK- cells; @ > 50 μM, 5 days): none; IC50 (GC3/M TK- cells; Homo sapiens, GC3/MTK-, 120 h): > 50000 nM; IC50 (CCRF-CEM cells; Homo sapiens, CCRF-CEM, 120 h): > 50000 nM; inhibition at 50 µM (CCRF-CEM cells; Homo sapiens, CCRF-CEM, 120 h): 42%; IC50 ([3]; Mus musculus, L1210, 72 h): > 50000 nM; inhibition at 50 µM ([3]; Mus musculus, L1210, 72 h): 28%
13 | Cc1ccc2nc(N)[nH]c(=O)c2c1Sc1ccncc1 [Compound 24A] | 1200 |  |  |  | 1100 | 550 | 
14 | Cc1ccc2nc(N)[nH]c(=O)c2c1Sc1ccncc1 [Compound 25A] |  |  |  |  |  |  | IC50 (GC3/M TK- cells; [10]): 1700 nM; IC50 (CCRF-CEM cells; [10]): 1100 nM; IC50 [3, 11]: 590 nM
15 | Cc1nc2ccc(C)c(Sc3ccc([N+](=O)[O-])cc3)c2c(=O)[nH]1 [Compound 10A] | > 4000 |  | 750 ± 80 | 83 ± 11 | 2900 | 3000 | 
16 | Cc1nc2ccc(C)c(Sc3ccnc(C(F)(F)F)c3)c2c(=O)[nH]1 [Compound 17A, 3,4-Dihydro-2,6-dimethyl-4-oxo-5-[4-(6-trifluoromethylpyridylthio)]-quinazoline] |  | 130 ± 30 |  |  |  |  | 
17 | Cc1nc2cccc(Cn3ccc4cc(Cl)ccc43)c2c(=O)[nH]1 [Compound 3A, 5-Chloro-N-[(3,4-dihydro-2-methyl-4-oxo-5-quinazolyl)methyl]indole] | > 12700 | > 3000 | > 3000 |  | > 12300 |  | inhibition at 12.7 µM (GC3/M TK- cells; Homo sapiens, GC3/MTK-, 120 h, > 12.7 μM, 5 days): 20%; inhibition at 12.3 µM (CCRF-CEM cells; Homo sapiens, CCRF-CEM, 120 h, > 12.3 μM, 5 days): 10%
18 | Cc1nc2ccc(C)c(Sc3ccncc3)c2c(=O)[nH]1 [Compound 23A] |  |  |  | 130 ± 9 |  |  | IC50 (GC3/M TK- cells; [10]): 6100 nM; IC50 (CCRF-CEM cells; [10]): 5100 nM; IC50 [3, 11]: 3500 nM
19 | Cc1nc(O)c2c(Oc3ccccc3)cccc2n1 [Compound 1A] |  |  | > 100000 |  |  |  | 
20 | Cc1nc(O)c2c(Sc3ccccc3)cccc2n1 [Compound 2A] |  |  | > 10000 |  |  |  | 
21 | Cc1ccc2nc(N)[nH]c(=O)c2c1Sc1ccnc(C(F)(F)F)c1 [Compound 18A, 2-Amino-3,4-dihydro-6-methyl-4-oxo-5-[4-(6-trifluoromethylpyridylthio)]-quinazoline] | > 2000 |  |  |  | > 2000 | 1800 | inhibition at 2 µM (GC3/M TK- cells; Homo sapiens, GC3/MTK-, 120 h, @ > 2.0 μM, 5 days): 33%; inhibition at 2 µM (CCRF-CEM cells; Homo sapiens, CCRF-CEM, 120 h, @ > 2.0 μM, 5 days): 33%
22 | Cc1ccc2nc(N)[nH]c(=O)c2c1Sc1ccncc1 [Compound 14A, 2-Amino-3,4-dihydro-6-methyl-4-oxo-5-(4-pyridylthio)-quinazoline] | 1000 |  | 150 ± 30 |  | 810 | 1000 | 
23 | Cc1nc2ccc(C)c(Sc3ccc(C(=O)N[C@@H](CCC(=O)O)C(=O)O)cc3)c2c(=O)[nH]1 [Compound 27A, N-[4-((3,4-Dihydro-2,6-dimethyl-4-oxo-5-quinazolinyl)thio)benzoyl]-L-glutamic acid] | 4100 |  |  | 7.95 | 990 | 1050 | 
24 | Cc1nc2ccc(O)c(Sc3ccncc3)c2c(=O)[nH]1 [Compound 15A, 3,4-Dihydro-6-hydroxy-2-methyl-4-oxo-5-(4-pyridylthio)-quinazoline] | > 50000 | 19000 ± 11000 |  |  | > 50000 | > 50000 | inhibition at 50 µM (GC3/M TK- cells; Homo sapiens, GC3/MTK-, 120 h, @ > 50 μM, 5 days): 4%; inhibition at 50 µM (CCRF-CEM cells; Homo sapiens, CCRF-CEM, 120 h, @ > 50 μM, 5 days): 40%; inhibition at 50 µM [3, 9]: 27%
